The text below walks through data of ChEMBL document CHEMBL1142111, “Induced production of emericellamides A and B from the marine-derived fungus Emericella sp. in competing co-culture” (J Nat Prod, 2007).

For one test, the system named is HCT-116. The test can be described thus: Cytotoxicity against human HCT116 cells. The format is cell-based.
In another test the test system is Staphylococcus aureus. Description: Antimicrobial activity against methicillin-resistant Staphylococcus aureus. The format is functional.

Values after ≈ are worked out from the molar mass of the structure shown.

For `CCCCCC[C@H](C)[C@H]1OC(=O)[C@H](C)NC(=O)[C@H](C)NC(=O)[C@H](CC(C)C)NC(=O)[C@H](C(C)C)NC(=O)CNC(=O)[C@@H]1C` [EMERICELLAMIDE A], in the test on HCT-116, the concentration for half-maximal inhibition (IC50) – broadly, the concentration that gives 50% inhibition – came to 23 µM. For the same compound, the MIC (usually the least concentration at which growth counts as inhibited) in the test on Staphylococcus aureus was 3.8 µM (≈ 2.32 µg/mL).
The corresponding values for `CCCCCC[C@H](C)C[C@H](C)[C@H]1OC(=O)[C@H](C)NC(=O)[C@H](C)NC(=O)[C@H](CC(C)C)NC(=O)[C@H](C(C)C)NC(=O)CNC(=O)[C@@H]1C` [EMERICELLAMIDE B] are 40 µM and 6 µM (≈ 3.91 µg/mL).
